Results from the NIST ThermoML archive (doi:10.1021/acs.jced.5b00251).
Numbers after ± are expanded uncertainties.

Experiment: refractive index (other wavelength) (dimensionless)
Details: 101 kPa, Liquid, Standard Abbe refractometry

CC(C)Cc1ccccc1 [(2-methylpropyl)benzene]
refractive index (293.15 K, Wavelength=436.1 nm): 1.50429 ± 0.00078 | refractive index (293.15 K, Wavelength=513.9 nm): 1.4927 ± 0.001 | refractive index (293.15 K, Wavelength=589.3 nm): 1.48654 ± 0.0008 | refractive index (293.15 K, Wavelength=633.2 nm): 1.48377 ± 0.00078 | refractive index (293.15 K, Wavelength=657.2 nm): 1.48286 ± 0.00076 | refractive index (298.15 K, Wavelength=436.1 nm): 1.50172 ± 0.00078 | refractive index (298.15 K, Wavelength=513.9 nm): 1.49023 ± 0.00076 | refractive index (298.15 K, Wavelength=589.3 nm): 1.48406 ± 0.00076 | refractive index (298.15 K, Wavelength=633.2 nm): 1.48132 ± 0.00075 | refractive index (298.15 K, Wavelength=657.2 nm): 1.48035 ± 0.00075 | refractive index (303.15 K, Wavelength=436.1 nm): 1.49916 ± 0.00078 | refractive index (303.15 K, Wavelength=513.9 nm): 1.48772 ± 0.00077 | refractive index (303.15 K, Wavelength=589.3 nm): 1.4815 ± 0.00076 | refractive index (303.15 K, Wavelength=633.2 nm): 1.47888 ± 0.00075 | refractive index (303.15 K, Wavelength=657.2 nm): 1.47798 ± 0.00074 | refractive index (308.15 K, Wavelength=436.1 nm): 1.49659 ± 0.00078 | refractive index (308.15 K, Wavelength=513.9 nm): 1.48521 ± 0.00077 | refractive index (308.15 K, Wavelength=589.3 nm): 1.47904 ± 0.00075 | refractive index (308.15 K, Wavelength=633.2 nm): 1.47643 ± 0.00075 | refractive index (308.15 K, Wavelength=657.2 nm): 1.47555 ± 0.00075 | refractive index (313.15 K, Wavelength=436.1 nm): 1.494 ± 0.00078 | refractive index (313.15 K, Wavelength=513.9 nm): 1.48268 ± 0.00076 | refractive index (313.15 K, Wavelength=589.3 nm): 1.47657 ± 0.00076 | refractive index (313.15 K, Wavelength=633.2 nm): 1.47397 ± 0.00075 | refractive index (313.15 K, Wavelength=657.2 nm): 1.47309 ± 0.00075 | refractive index (318.15 K, Wavelength=436.1 nm): 1.49143 ± 0.00078 | refractive index (318.15 K, Wavelength=513.9 nm): 1.48023 ± 0.0006 | refractive index (318.15 K, Wavelength=589.3 nm): 1.47409 ± 0.0007 | refractive index (318.15 K, Wavelength=633.2 nm): 1.47151 ± 0.00072 | refractive index (318.15 K, Wavelength=657.2 nm): 1.47063 ± 0.00075

c1ccc2c(c1)CCCC2 [1,2,3,4-tetrahydronaphthalene]
refractive index (293.15 K, Wavelength=436.1 nm): 1.56232 ± 0.00078 | refractive index (293.15 K, Wavelength=513.9 nm): 1.54872 ± 0.001 | refractive index (293.15 K, Wavelength=589.3 nm): 1.5412 ± 0.00082 | refractive index (293.15 K, Wavelength=633.2 nm): 1.53808 ± 0.00078 | refractive index (293.15 K, Wavelength=657.2 nm): 1.53694 ± 0.00075 | refractive index (298.15 K, Wavelength=436.1 nm): 1.5598 ± 0.00078 | refractive index (298.15 K, Wavelength=513.9 nm): 1.54625 ± 0.00077 | refractive index (298.15 K, Wavelength=589.3 nm): 1.53875 ± 0.00076 | refractive index (298.15 K, Wavelength=633.2 nm): 1.53565 ± 0.00075 | refractive index (298.15 K, Wavelength=657.2 nm): 1.53452 ± 0.00075 | refractive index (303.15 K, Wavelength=436.1 nm): 1.55719 ± 0.00078 | refractive index (303.15 K, Wavelength=513.9 nm): 1.54373 ± 0.00076 | refractive index (303.15 K, Wavelength=589.3 nm): 1.53628 ± 0.00075 | refractive index (303.15 K, Wavelength=633.2 nm): 1.53321 ± 0.00075 | refractive index (303.15 K, Wavelength=657.2 nm): 1.53208 ± 0.00074 | refractive index (308.15 K, Wavelength=436.1 nm): 1.55471 ± 0.00077 | refractive index (308.15 K, Wavelength=513.9 nm): 1.5413 ± 0.00076 | refractive index (308.15 K, Wavelength=589.3 nm): 1.53389 ± 0.00075 | refractive index (308.15 K, Wavelength=633.2 nm): 1.53083 ± 0.00074 | refractive index (308.15 K, Wavelength=657.2 nm): 1.52971 ± 0.00074 | refractive index (313.15 K, Wavelength=436.1 nm): 1.55219 ± 0.00077 | refractive index (313.15 K, Wavelength=513.9 nm): 1.53886 ± 0.00076 | refractive index (313.15 K, Wavelength=589.3 nm): 1.53148 ± 0.00075 | refractive index (313.15 K, Wavelength=633.2 nm): 1.52844 ± 0.00073 | refractive index (313.15 K, Wavelength=657.2 nm): 1.52732 ± 0.00074 | refractive index (318.15 K, Wavelength=436.1 nm): 1.54974 ± 0.00077 | refractive index (318.15 K, Wavelength=513.9 nm): 1.53647 ± 0.00059 | refractive index (318.15 K, Wavelength=589.3 nm): 1.52912 ± 0.00067 | refractive index (318.15 K, Wavelength=633.2 nm): 1.52629 ± 0.0007 | refractive index (318.15 K, Wavelength=657.2 nm): 1.52495 ± 0.00074

CCCCCCCCCCCC [dodecane]
refractive index (293.15 K, Wavelength=436.1 nm): 1.43105 ± 0.00072 | refractive index (293.15 K, Wavelength=513.9 nm): 1.42506 ± 0.00082 | refractive index (293.15 K, Wavelength=589.3 nm): 1.42171 ± 0.00074 | refractive index (293.15 K, Wavelength=633.2 nm): 1.42031 ± 0.00073 | refractive index (293.15 K, Wavelength=657.2 nm): 1.41993 ± 0.00071 | refractive index (298.15 K, Wavelength=436.1 nm): 1.42886 ± 0.00072 | refractive index (298.15 K, Wavelength=513.9 nm): 1.42291 ± 0.00071 | refractive index (298.15 K, Wavelength=589.3 nm): 1.41957 ± 0.00071 | refractive index (298.15 K, Wavelength=633.2 nm): 1.41815 ± 0.00071 | refractive index (298.15 K, Wavelength=657.2 nm): 1.41777 ± 0.00071 | refractive index (303.15 K, Wavelength=436.1 nm): 1.42666 ± 0.00072 | refractive index (303.15 K, Wavelength=513.9 nm): 1.42074 ± 0.00072 | refractive index (303.15 K, Wavelength=589.3 nm): 1.41742 ± 0.00071 | refractive index (303.15 K, Wavelength=633.2 nm): 1.41601 ± 0.00071 | refractive index (303.15 K, Wavelength=657.2 nm): 1.41564 ± 0.00071 | refractive index (308.15 K, Wavelength=436.1 nm): 1.42445 ± 0.00072 | refractive index (308.15 K, Wavelength=513.9 nm): 1.41857 ± 0.00072 | refractive index (308.15 K, Wavelength=589.3 nm): 1.41527 ± 0.00071 | refractive index (308.15 K, Wavelength=633.2 nm): 1.41385 ± 0.00071 | refractive index (308.15 K, Wavelength=657.2 nm): 1.4135 ± 0.00071 | refractive index (313.15 K, Wavelength=436.1 nm): 1.42223 ± 0.00072 | refractive index (313.15 K, Wavelength=513.9 nm): 1.41638 ± 0.00072 | refractive index (313.15 K, Wavelength=589.3 nm): 1.41309 ± 0.00071 | refractive index (313.15 K, Wavelength=633.2 nm): 1.41171 ± 0.00072 | refractive index (313.15 K, Wavelength=657.2 nm): 1.41134 ± 0.00071 | refractive index (318.15 K, Wavelength=436.1 nm): 1.42001 ± 0.00072 | refractive index (318.15 K, Wavelength=513.9 nm): 1.41418 ± 0.00063 | refractive index (318.15 K, Wavelength=589.3 nm): 1.41093 ± 0.00069 | refractive index (318.15 K, Wavelength=633.2 nm): 1.40943 ± 0.0007 | refractive index (318.15 K, Wavelength=657.2 nm): 1.4092 ± 0.00071
